According to publication PMC11904221 (EMBO Molecular Medicine, 2025):
Read-outs that look alike come from different tables or passages of the source. Where a SMILES comes first, the peptide text is derived from it.

Experiments:
in vivo = conditions: BALB/c, mouse, ip
Protocol: Pharmacological profile of APLN-DM peptide
Maximal Tolerated Dose (MTD) study of APLN -DM in mice
Six groups comprising six Balb/C mice per group (3 males and 3 females) were assigned to the study. In each gender, one control group (1 Male (M)/1 female (F)) received the reference solution (vehicle) and 5 […]
mg/kg (4M/4F), 2000 mg/kg (5M/5F) and 1500 mg/kg (6M/6F). APLN-DM peptide was administrated via intra-peritoneal (IP) single injection at day 1 followed by observation during 14 days. During the study, mortality, morbidity, general clinical signs and bod y weight were recorded. In the end of the study pathology and organ necropsy examination were performed. Thereby, APLN-DM peptide and vehicle were administered to mice according to Table-1 and their effects were analyzed according to Table-2.
Each test item dose was administrated to 3 female and 3 male mice. The administration was performed IP at a dose volume of 10 ml/kg. Dosing was performed according to Figure-1 and each increase in dose pending on the outcome of the previous dose (results of clinical signs). The lag time between the increasing doses was approximately 48h.
No. (n=) Mouse# Treatment Dose Level administration administratio […]
Table-1. Study design -1. […], […]
Study Day* Procedure Body Weight Clinical Mortality & Organ
Sign Morbidity observation
2-14 - Twice weekly Once -
15 Termination √ √ Gross pathology
Figure 1 - Decisional tree for successive dosing for MTD determination […]
At study termination, body weight (Figure 2 and Figure 3) and gross pathology abnormalities were analyzed in all animals. Main pathological finding were blood clots in intestine and chest cavity. Treatment-related clinical adverse side effects (purple tail, lethargy, decreased motor activity) were observed also in groups treated either with 200, 500, 1000 and 1500 mg/kg. The tail recovered a normal color after 1 hour in all dose groups. […]
abnormalities were detected in all male and female animals from these groups at the scheduled termination […]

[1] = Time-dependent stability in water and in plasma on storage, LC-MS; format: physicochemical; conditions: read-out: % of area at T=0
Protocol: The standard deviations were below the acceptable values (<15%) showing that the accuracy is correct and compliant with standard quantification protocols. […]
the linearity of the method. […]
for concentrations below 0.5 µM.
The second step of the study consisted to analyse the stability of the peptide in order to evaluate the feasibility of the quantification of APLN-DM in the samples obtained in vivo.
Quantification in the plasma after protein precipitation
Before the injection for LC-MS analysis, the plasmas had to be processed for elimination of major proteins, which can disturb the analysis. Proteins were precipitated by an organic solvent. […]
The second method was adapted from the protocol described by O. Chertov et al. (Proteomics 2004, 4, 1195- […]
1203). […] 7 µl of this solution were […]
added to 70 µl plasma or 70 µl water (control).
10 µl of each sample were mixed to 20 µl water, vortexed, mixed to 45 µl d’acetonitrile + 0.1% trifluoroacetic acid, sonicated, vortexed, centrifuged for 15 minutes. The supernatant was evaporated and the pellet was re-suspended in 30 µl water. The 2 samples (peptide in plasma or in water) were injected in LC-MS according to the conditions previously established.
With this method, the recovery of APLN-DM in the plasma after protein precipitation was sufficient.
The coefficient of variation was acceptable. This method was used for the stability study in the plasma.
7 µl were added to 3 samples […]
of 70 µl plasma or 70 µl water.
Six solutions were obtained:
-W RT : solution in water stored at room temperature
-W 4°C : solution in water stored at 4°C
-W -18°C : solution in water stored at -18°C
-P RT : solution in plasma stored at room temperature
-P 4°C : solution in plasma stored at 4°C
-P -18°C : solution in plasma stored at -18°C. […]
processed for protein extraction (according to the method previously described), and then injected in […]
LC-MS for APLN-DM quantification. For […]
each sample, % were calculated according to the area obtained at T=0 which correspo nd to 100%.

in vitro [2] = experiment: in vitro
in vitro [3] = experiment: in vitro; remark: listed apart in the source

## CSCC[C@H](NC(=O)[C@@H]1CCCN1C(=O)CNC(=O)[C@H](CCCCN)NC(=O)[C@H](Cc1c[nH]cn1)NC(=O)[C@H](CO)NC(=O)[C@H](CC(C)C)NC(=O)[C@H](CCCNC(=N)N)NC(=O)[C@@H]1CCCN1C(=O)[C@H](CCCNC(=N)N)NC(=O)[C@H](CCC(N)=O)NC(=O)[C@H](CO)NC(=O)[C@H](CO)NC(=O)[C@H](Cc1ccccc1)NC(=O)[C@H](CCCCN)NC(=O)[C@H](CO)NC(=O)[C@H](CO)NC(=O)CNC(=O)CNC(=O)[C@H](CCC(N)=O)NC(=O)[C@H](Cc1c[nH]c2ccccc12)NC(=O)[C@@H]1CCCN1C(=O)CNC(=O)[C@@H]1CCCN1C(=O)CNC(=O)[C@H](CC(N)=O)NC(=O)[C@H](CCCNC(=N)N)NC(=O)[C@H](CO)NC(=O)CNC(=O)[C@H](CCCNC(=N)N)NC(=O)[C@@H]1CCCN1C(=O)[C@H](CCC(N)=O)NC(=O)[C@@H](NC(=O)[C@@H](N)CC(C)C)C(C)C)C(=O)N1CCC[C@H]1C(=O)N[C@@H](Cc1ccccc1)C(=O)O [APLN-DM] (H-LVQPRGSRNGPGPWQGGSSKFSSQRPRLSHKGPMPF-OH)
In vivo; female
  MTD at 336 h: 1000 mg/kg
In vivo; male
  MTD at 336 h: 1500 mg/kg
[1]; P 4°C
  remaining at 2 h: 51%
  remaining at 168 h: 6%
[1]; P 4°C: in plasma, 4°C
  remaining at 1 h: 66%
[1]; P -18°C
  remaining at 2 h: 66%
  remaining at 5 h: 114%
  remaining at 24 h: 86%
  remaining at 48 h: 97%
  remaining at 72 h: 89%
  remaining at 168 h: 12%
[1]; P -18°C: in plasma, -18°C
  remaining at 1 h: 75%
[1]; P RT
  remaining at 2 h: 17%
  remaining at 5 h: 13%
  remaining at 24 h: 8%
  remaining at 48 h: 14%
  remaining at 72 h: 7%
  remaining at 168 h: 22%
[1]; P RT: in plasma, room temperature
  remaining at 1 h: 21%
In vitro [2]
  % Protein bound, 1st: 26.1%
  % Protein bound, 2nd: 26.9%
  % Recovery, Mean: 93%
In vitro [2]; CD-1, mouse, plasma
  fraction unbound at 4 h, 1e-05 M: 0.74
In vitro [3]
  Half-life in human plasma: > 18 h
In vitro [3]; human
  Half-life, 1st: 21.173 h
  Half-life, 2nd: 16.21 h
In vitro [3]; human, plasma
  half-life at 1 µM: 18.7 h
  remaining at 0.5 h: 99%
  remaining at 1 h: 98%
  remaining at 2 h: 93%
